Data reported in US20090170847A1, “Imidazopyridine Derivatives Inhibiting Protein Kinase Activity, Method for the Preparation Thereof and Pharmaceutical Composition Containing Same” (priority 2006, published 2009).

Legend:
Format in all cases: biochemical
CDK-2/cycline A = molecular target: T1, CDK-2/cycline A (Homo sapiens, UniProt P24941); assay: CDK-2 enzyme inhibition (histone H1, 32P-ATP)
T1 construct: purchased Upstate
Procedure: (§1) 0.33 mg/ml of MBP (Upstate), 100 μM of ATP and 0.25 μCi of ^32P-ATP were added to the buffer solution as substrates. 5 nM of recombinant Erk-1 (Upstate) was added the resulting mixture, and the mixture was reacted at 30° C. for 1 hour. The reaction was terminated by adding 5 μl of 5% phosphoric acid solution to 25 μl of the reaction mixture. 15 μl of the resulting solution was dropped on whatman p81 filter paper, which was then washed in 0.5% phosphoric acid solution for 10 mins. After repeating the washing 3 times, the filter paper was dried and cpm thereof was measured by a liquid scintillation counter (Packard, USA). Inhibitory capacities of the test compounds for the enzyme activity were assessed according to the same method as in GSK-3β analysis, and IC50 value was calculated.
The procedure of ERK-1 analysis was repeated to assess inhibitory capacities of the test compounds for the enzyme activity, except for using 2.5 μg of histone H1 (Upstate) and 100 nM of recombinant CDK-2/cycline A (Upstate).

[1] = molecular target: T2, p38 Mitogen-activated protein kinase (MAPK) (Homo sapiens, UniProt Q16539); assay: p38 MAPK enzyme inhibition (histone H1, 32P-ATP); conditions: p38 MAPK (recombinant p38a)
T2 construct: purchased Upstate

JNK-1 = molecular target: T3, JNK-1 (Homo sapiens, UniProt P45983); assay: JNK-1 enzyme inhibition (GST-ATF2, 32P-ATP)
T3 construct: purchased Upstate

KDR = molecular target: T4, KDR (Homo sapiens, UniProt P35968); assay: KDR enzyme inhibition (Biotin-polyE4Y, alphascreen); conditions: 0.1 μM ATP
T4 construct: purchased Upstate
Procedure: (§2) The test solution prepared above by dissolving a test compound in DMSO was added to the reaction solution in an amount of less than 5% based on the total reaction solution to analyze the capacity for enzyme inhibitory activity. The cpm value obtained when the test compounds was present relative to the cpm value in the absence of the test compound was represented by percentage, and IC50 (μM) was determined as the concentration of the test compound required to inhibit the enzyme activity by 50% relatively to the control solution.
The compounds prepared in the Examples were dissolved in dimethylsulfoxide (DMSO) at a concentration of 12.5 mM to prepare test solution, and enzyme reaction was conducted in a buffer solution containing 50 mM tris-HCl (pH 7.5), 5 mM MgCl2, 1 mM MnCl2, 0.01% tween-20 and 2 mM of DTT. 1 nM of Biotin-polyE4Y (Packard) and 0.1 μM of ATP were added to the buffer solution as substrates. 2 nM of recombinant KDR (Upstate) was added the resulting mixture and reaction was carried out at 30° C. for 1 hour. 10 μl of a diluted solution prepared by diluting alphascreen phosphotyrosine (T-Tyr-100, Packard) beads with a solution containing 6.25 mM of HEPES (pH 7.4), 250 mM of NaCl, 100 Mm EDTA, and 0.25% BSA was added to 15 μl of the KDR reaction solution. After a reaction at a room temperature for 1 hour, alphascreen signal was measured by a fusion a-FP (Packard). Inhibitory capacities of the test compounds for the enzyme activity were assessed according to the same method as in GSK-3β analysis, and IC50 value was calculated.

ERK-1 = molecular target: T5, ERK-1 (Homo sapiens, UniProt P27361); assay: ERK-1 enzyme inhibition (MBP, 32P-ATP); conditions: ERK-1, 100 μM ATP
T5 construct: purchased Upstate
Procedure: as §2
as §1, with “The compounds prepared in the Examples were dissolved in dimethylsulfoxide (DMSO) at a concentration of 12.5 mM to prepare test compounds and enzyme reaction was conducted in a buffer solution containing 50 mM of tris-HCl (pH 7.5), 10 mM of MgCl2, 1 mM of EGTA, 1 mM of EDTA and 1 mM of DTT. 0.33” for “0.33”

Aurora Kinase A = molecular target: T6, Aurora Kinase A (Homo sapiens, UniProt O14965); assay: Aurora kinase A enzyme inhibition (Kemptide, Kinase glo); conditions: 1 μM ATP
T6 construct: purchased Upstate
T6 sequence (O14965 1-403): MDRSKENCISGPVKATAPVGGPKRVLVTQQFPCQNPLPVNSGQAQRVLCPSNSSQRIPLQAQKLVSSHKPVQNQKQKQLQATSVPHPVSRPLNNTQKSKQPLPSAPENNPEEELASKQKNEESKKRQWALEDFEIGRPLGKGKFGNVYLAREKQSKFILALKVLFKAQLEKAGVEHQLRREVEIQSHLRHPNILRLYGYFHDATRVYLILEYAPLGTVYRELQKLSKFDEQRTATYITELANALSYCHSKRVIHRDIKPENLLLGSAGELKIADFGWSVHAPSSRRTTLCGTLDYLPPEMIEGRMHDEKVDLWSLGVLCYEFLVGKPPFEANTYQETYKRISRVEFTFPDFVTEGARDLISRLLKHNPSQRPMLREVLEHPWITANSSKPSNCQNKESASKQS
Procedure: as §2
(§3) A test solution was prepared by dissolving one of the compounds of the Examples in DMSO at a concentration of 12.5 mM. Enzyme reaction was conducted in a buffer solution containing 20 mM of HEPES (pH 7.5), 5 mM MgCl2, 0.5 mM ethylene glycol bis(b-aminoethylether) tetraacetic acid (EGTA), 200 mM of KCl, 1 mM of DTT and 0.05% triton X-100. 100 μM of Kemptide peptide (Upstate) and 1 μM of ATP were added to the buffer solution as substrates. Recombinant aurora kinase (Upstate) was added the resulting mixture at a concentration of 10 nM and reaction was carried out at 30° C. for 1 hour. 25 μl of the resulting solution was mixed with 25 μl of Kinase glo (promega), thereby inducing the second reaction by luciferase. The amount of remained ATP was measured by fusion a-FP (Packard, USA). Inhibitory capacities of the test compounds for the enzyme activity were assessed according to the same method as in GSK-3β analysis, and IC50 value was calculated.

PDK-1 = molecular target: T7, PDK-1 (Homo sapiens, UniProt O15530); assay: PDK-1 enzyme inhibition (PDKtide, Kinase glo)
T7 construct: purchased Upstate
T7 sequence (O15530 1-556): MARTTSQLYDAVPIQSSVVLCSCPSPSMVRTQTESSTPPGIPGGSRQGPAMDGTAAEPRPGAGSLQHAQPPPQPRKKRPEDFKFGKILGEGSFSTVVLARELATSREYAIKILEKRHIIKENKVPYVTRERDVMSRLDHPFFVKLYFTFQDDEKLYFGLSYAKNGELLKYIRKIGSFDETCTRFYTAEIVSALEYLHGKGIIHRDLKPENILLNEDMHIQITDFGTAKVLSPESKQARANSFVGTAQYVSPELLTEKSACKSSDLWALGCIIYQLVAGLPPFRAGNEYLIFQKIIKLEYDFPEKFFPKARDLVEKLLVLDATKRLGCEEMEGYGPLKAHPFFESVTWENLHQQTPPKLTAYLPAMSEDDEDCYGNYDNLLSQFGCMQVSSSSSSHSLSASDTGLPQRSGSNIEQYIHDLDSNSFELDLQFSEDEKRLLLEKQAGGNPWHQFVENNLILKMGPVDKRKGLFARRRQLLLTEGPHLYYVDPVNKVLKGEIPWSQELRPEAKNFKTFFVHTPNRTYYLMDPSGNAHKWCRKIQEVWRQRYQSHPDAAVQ
Procedure: as §3
The procedure of aurora kinase A analysis was repeated to assess inhibitory capacities of the test compounds for the enzyme activity, except for using a buffer solution containing 50 mM of tris-HCl (pH 7.5), 10 mM of MgCl2, 1 mM of EGTA and 1 mM of […]; 2.5 μM of PDKtide (peptide, Upstate) (Upstate); and 31.5 nM of recombinant PDK1 (Upstate).

T3 sequence (P45983 whole entry, species assumed): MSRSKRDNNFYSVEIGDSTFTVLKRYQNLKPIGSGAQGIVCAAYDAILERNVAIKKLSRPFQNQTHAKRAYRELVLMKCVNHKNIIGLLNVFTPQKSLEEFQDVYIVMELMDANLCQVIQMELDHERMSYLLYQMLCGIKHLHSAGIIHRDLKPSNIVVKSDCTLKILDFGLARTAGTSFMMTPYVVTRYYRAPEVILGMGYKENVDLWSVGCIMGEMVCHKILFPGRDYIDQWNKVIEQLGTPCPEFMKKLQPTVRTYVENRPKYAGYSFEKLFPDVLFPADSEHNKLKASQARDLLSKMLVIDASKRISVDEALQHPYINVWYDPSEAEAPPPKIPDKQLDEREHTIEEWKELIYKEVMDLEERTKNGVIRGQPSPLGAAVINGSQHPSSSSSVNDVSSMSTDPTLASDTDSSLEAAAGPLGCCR
T4 sequence (P35968 20-1356, species assumed): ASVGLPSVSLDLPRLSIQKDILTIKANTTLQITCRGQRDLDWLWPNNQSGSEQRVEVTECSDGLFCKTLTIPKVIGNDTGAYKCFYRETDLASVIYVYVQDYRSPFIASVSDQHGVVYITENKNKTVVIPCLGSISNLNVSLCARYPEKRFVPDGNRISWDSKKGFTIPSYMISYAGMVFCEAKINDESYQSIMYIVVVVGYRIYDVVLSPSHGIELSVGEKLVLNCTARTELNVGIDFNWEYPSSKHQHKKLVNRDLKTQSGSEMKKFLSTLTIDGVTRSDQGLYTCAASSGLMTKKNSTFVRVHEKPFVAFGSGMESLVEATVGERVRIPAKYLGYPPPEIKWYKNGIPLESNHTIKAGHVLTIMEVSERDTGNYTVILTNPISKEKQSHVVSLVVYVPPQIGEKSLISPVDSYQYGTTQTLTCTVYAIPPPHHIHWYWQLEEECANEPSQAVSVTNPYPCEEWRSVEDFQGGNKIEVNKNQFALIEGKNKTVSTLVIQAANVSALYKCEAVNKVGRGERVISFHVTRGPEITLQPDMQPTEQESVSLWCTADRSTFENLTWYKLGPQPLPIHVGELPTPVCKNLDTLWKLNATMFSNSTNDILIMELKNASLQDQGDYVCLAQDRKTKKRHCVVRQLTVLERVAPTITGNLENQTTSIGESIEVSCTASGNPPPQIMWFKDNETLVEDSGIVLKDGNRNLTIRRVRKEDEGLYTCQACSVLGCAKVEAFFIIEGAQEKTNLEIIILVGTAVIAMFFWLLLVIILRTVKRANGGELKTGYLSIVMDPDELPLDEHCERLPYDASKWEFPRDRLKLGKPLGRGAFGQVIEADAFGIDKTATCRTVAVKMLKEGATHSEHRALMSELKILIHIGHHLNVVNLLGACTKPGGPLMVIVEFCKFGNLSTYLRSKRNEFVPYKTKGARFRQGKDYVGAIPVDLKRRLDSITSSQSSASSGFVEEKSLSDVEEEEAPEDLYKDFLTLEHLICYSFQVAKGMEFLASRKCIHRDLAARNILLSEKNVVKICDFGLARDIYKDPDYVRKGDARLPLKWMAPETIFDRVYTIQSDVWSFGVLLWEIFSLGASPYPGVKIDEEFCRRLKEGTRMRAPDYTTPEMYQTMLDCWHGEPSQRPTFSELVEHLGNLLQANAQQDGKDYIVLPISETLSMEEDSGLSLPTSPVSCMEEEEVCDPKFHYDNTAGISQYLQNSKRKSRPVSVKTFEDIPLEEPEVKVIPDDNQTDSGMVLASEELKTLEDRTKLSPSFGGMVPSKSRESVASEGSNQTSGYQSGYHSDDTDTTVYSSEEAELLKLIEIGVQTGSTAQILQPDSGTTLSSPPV
T5 sequence (P27361 whole entry, species assumed): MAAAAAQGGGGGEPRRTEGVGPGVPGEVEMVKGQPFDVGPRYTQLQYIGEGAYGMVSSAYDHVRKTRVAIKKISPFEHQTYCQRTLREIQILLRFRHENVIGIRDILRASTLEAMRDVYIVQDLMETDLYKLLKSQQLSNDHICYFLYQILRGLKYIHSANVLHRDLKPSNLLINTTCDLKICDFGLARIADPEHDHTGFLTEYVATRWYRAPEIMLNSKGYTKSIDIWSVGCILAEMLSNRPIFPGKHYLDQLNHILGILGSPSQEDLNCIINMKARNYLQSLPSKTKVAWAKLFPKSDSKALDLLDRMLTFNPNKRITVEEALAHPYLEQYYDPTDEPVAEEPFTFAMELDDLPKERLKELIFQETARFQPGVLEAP
T2 sequence (Q16539 whole entry): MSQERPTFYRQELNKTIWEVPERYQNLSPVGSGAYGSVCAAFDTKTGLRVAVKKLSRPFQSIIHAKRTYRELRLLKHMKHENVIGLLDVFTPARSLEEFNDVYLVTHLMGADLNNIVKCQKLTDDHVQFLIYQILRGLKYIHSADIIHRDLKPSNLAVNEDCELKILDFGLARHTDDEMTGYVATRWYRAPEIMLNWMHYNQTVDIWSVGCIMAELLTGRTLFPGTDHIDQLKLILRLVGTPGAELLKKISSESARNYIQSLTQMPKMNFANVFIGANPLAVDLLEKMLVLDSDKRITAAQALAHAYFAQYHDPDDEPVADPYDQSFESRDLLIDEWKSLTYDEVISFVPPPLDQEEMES

Structure (SMILES)	IC50 (CDK-2/cycline A) [nM]	IC50 [1] [nM]	IC50 (JNK-1) [nM]	IC50 (KDR) [nM]	IC50 (ERK-1) [nM]	IC50 (Aurora Kinase A) [nM]	IC50 (PDK-1) [nM]
Cc1ccncc1NC(=O)c1ccnc2[nH]c(-c3ccc(F)cc3)nc12 [Example 241, 2-(4-fluoro-phenyl)-3H-imidazo[4,5-b]pyridine-7-carboxylic acid(4-methyl-pyridin-3-yl)-amide]					16500		28500
Cc1ccncc1NC(=O)c1ccnc2[nH]c(-c3ccc(NCCCN4CCCC4)cc3)nc12 [Example 340, 2-[4-(3-pyrrolidin-1-yl-propylamino)-phenyl]-3H-imidazo[4,5-b]pyridine-7-carboxylic acid(4-methyl-pyridin-3-yl)-amide]	400		100				
CCS(=O)(=O)Nc1ccc(CCNC(=O)c2ccnc3[nH]c(-c4ccc(F)cc4)nc23)cc1 [Example 198, 2-(4-fluoro-phenyl)-3H-imidazo[4,5-b]pyridine-7-carboxylic acid[2-(4-ethanesulfonylamino-phenyl)-ethyl]-amide]	2400			12500			

Further lines, results first:

IC50 (CDK-2/cycline A) [nM]	IC50 [1] [nM]	IC50 (JNK-1) [nM]	IC50 (KDR) [nM]	IC50 (ERK-1) [nM]	IC50 (Aurora Kinase A) [nM]	IC50 (PDK-1) [nM]	Structure (SMILES)
360	3250	10500	1650				Cc1ccncc1NC(=O)c1ccnc2[nH]c(-c3cccc(F)c3)nc12 [Example 451, 2-(3-fluoro-phenyl)-3H-imidazo[4,5-b]pyridine-7-carboxylic acid(4-methyl-pyridin-3-yl)-amide]
120		460	1500				CCOc1ccncc1NC(=O)c1ccnc2[nH]c(-c3ccc(F)cc3)nc12 [Example 287, 2-(4-fluoro-phenyl)-3H-imidazo[4,5-b]pyridine-7-carboxylic acid(4-ethoxy-pyridin-3-yl)-amide]
350				19000			Cc1ccncc1NC(=O)c1c(Br)cnc2[nH]c(-c3cccc(F)c3)nc12 [Example 452, 6-bromo-2-(3-fluoro-phenyl)-3H-imidazo[4,5-b]pyridine-7-carboxylic acid(4-methyl-pyridin-3-yl)-amide]
300			170		198	3100	Cc1ccncc1NC(=O)c1ccnc2[nH]c(-c3ccc(NCCCCN(C)C)cc3)nc12 [Example 343, 2-[4-(4-dimethylamino-butylamino)-phenyl]-3H-imidazo[4,5-b]pyridine-7-carboxylic acid(4-methyl-pyridin-3-yl)-amide]
225		180	520				COc1ccncc1NC(=O)c1ccnc2[nH]c(-c3ccc(F)cc3)nc12 [Example 246, 2-(4-fluoro-phenyl)-3H-imidazo[4,5-b]pyridine-7-carboxylic acid(4-methyloxy-pyridin-3-yl)-amide]
